Measured values published in patent US20220280607A1, “Treatment of Heart Defects and Conditions in Pediatric Patients” (University of Pittsburgh - Of the Commonwealth System of …, priority 2019, published 2022).

What was measured:
[1] = tested on: cardiomyocytes of newborn mice; test: Mouse pharmacological treatment of newborn mice: binucleated cardiomyocytes, cardiomyocyte endowment, cell cycle activity, heart weight; type: in vivo; details: for increase of cardiomyocyte endowment: counting fixation-digested hearts, FIG. 12D
Protocol: […] An equal volume of phosphate buffered saline (PBS) was injected in the control groups.
Isolation of intact cardiomyocytes for quantification: We used a previously validated fixation digestion method to isolate intact cardiomyocytes from fresh or frozen myocardium for quantification (Mollova, M., et al. “Cardiomyocyte proliferation in human heart growth” Proceedings of the National Academy of Sciences January 2013, 110 (4) 1446-1451; DOI: 10.1073/pnas.1214608110). The myocardium was cut into 1 cubic millimeter (mm^3) sized tissue blocks followed by incubation with 3.7% formaldehyde at room temperature for 1.8 hours. After being washed with PBS 3 times to remove the formaldehyde, the fixed tissue blocks were digested in enzyme solution (Collagenase B, 3.6 mg/ml; Collagenase D, 4.8 mg/ml) at 37 degrees Celsius (° C.), with 10 revolutions per minute (rpm) overhead rotation. The digested cells were collected every 24 hours from the supernatant, and the undigested tissue was re-suspended with fresh enzyme solution until all of the tissue pieces were digested. All of the digested cells from the same heart were then combined and allowed to settle to the bottom of the tube. The cell pellet was collected for further study.
Counting of cardiomyocytes after fixation and digestion: All fractions from the digestion of a heart were combined in 2 milliliters (mL) PBS and cardiomyocytes were quantified using a hemocytometer.
Intact cardiomyocytes in suspension. To assess M-phase, intact cardiomyocytes were isolated by fixation-digestion. The solution containing the stained cells was then transferred to 8-well chambered cover glass (400 μl/well). After the cells were settled down to the bottom of the chambers, the number of mono/bi/multinucleated cardiomyocytes were counted with a fluorescence microscope, and the percentage of mono/bi/multinucleated cardiomyocytes was calculated. To quantify the proportion of H3P-positive cardiomyocytes, the concentration of stained cardiomyocytes in suspension (Ccardiomyocytes) was first measured using a hemocytometer. The cell suspension (400 μl) was then transferred to a well of a chamber slide, and the total number of H3P-positive cardiomyocytes (HH3P+) inside the well was counted with a TiE epifluorescence microscope. The proportion of the H3P-positive cardiomyocytes (PH3P+) was calculated using the following formula: […]
Heart sections: To determine S-phase, BrdU (40 μg/g body) was administered to P7 ICR mice and the hearts were resected at P8, fixed, and cryosectioned at 15 μm thickness. From each heart, four heart sections at a distance of 300 μm were selected and imaged by tile scanning with a Nikon A1R confocal microscope. The total number of BrdU-positive cardiomyocytes at the selected heart sections was counted. The total area of the selected heart sections was measured by Fiji software. The density of BrdU-positive cardiomyocytes (cells/mm^2) in the hearts was calculated using the following equation: […]
Intact cardiomyocytes in suspension. Cardiomyocytes were isolated from fresh or frozen (human or mouse) ventricle myocardium using the fixation-digestion method, followed by immunostaining as described above. The cells were then imaged and quantified with a Nikon A1R microscope for mono/bi/multi-nucleation.

[2] = tested on: human fetal cardiomyocytes; test: Cytokinesis failure in cultured human fetal cardiomyocytes (β-adrenergic receptor signaling pathway studies); type: cell-based
Protocol: Primary cardiomyocyte culture experiments: Neonatal (mouse or rat) cardiomyocytes or human fetal cardiomyocytes were plated in 4-well chamber slides pre-coated with fibronectin (10 μg/ml) at a density of 200,000 cells/well and cultured with DMEM/high glucose (for mouse and rat cardiomyocytes) or IMDM (for fetal human cardiomyocytes) containing 10% fetal bovine serum (FBS) and recombinant neuregulin 1 (rNRG1, 100 nanograms per milliliter (ng/ml)) overnight. All treatments and BrdU (30 micromolar (μM)) were added on the next day.
β-adrenergic receptor signaling pathway studies: Forskolin (10 μM), propranolol (10 μM), dobutamine (10 μM), or a combination of propranolol (10 μM) and dobutamine (10 μM) were added to the culture from day 1 to day 3. The cells were collected for examining gene expression or immunofluorescence microscopy at day 3.
Cardiomyocytes cultured on glass surfaces. […] The BrdU-positive nuclei, cell-cell boundaries (Pan-Cadherin antibody), and cardiomyocyte markers (α-actinin or troponin I antibody) were labeled by immunofluorescence. The stained cells were imaged under Nikon confocal microscope. The binucleated cardiomyocytes and all BrdU-positive cardiomyocytes were quantified using Fiji software.

[3] = tested on: cardiomyocytes from infants with ToF/PS; test: ToF/PS myocardium tissue (organotypic) culture: binucleated BrdU-labeled cardiomyocytes; type: cell-based, human; details: propranolol 10 μM + dobutamine 10 μM, ToF/PS organotypic cultures, FIG. 14E
Protocol: ToF/PS myocardium tissue culture: Discarded myocardium samples were collected during ToF/PS surgery, cut into ˜1 mm^3 tissue blocks, and cultured in IMDM media containing 10% FBS, recombinant neuregulin 1 (rNRG1, 100 ng/ml), and BrdU (30 μM) for 6 days. Samples were treated with forskolin (10 μM), propranolol (10 μM), dobutamine (10 μM), or a combination of propranolol (10 μM) and dobutamine (10 μM).
Cultured ToF/PS myocardium. Cardiomyocytes were isolated from cultured myocardium with the fixation-digestion method. After denaturing the DNA with 2N HCl and neutralization with 2 Normal (N) sodium hydroxide (NaOH), immunofluorescence antibody labeling was performed in solution. The proportion of binucleated and BrdU-positive was quantified with a Nikon A1R microscope.

CC(C)NCC(O)COc1cccc2ccccc12 (centres unmarked) [propranolol, 1-naphthalen-1-yloxy-3-(propan-2-ylamino)propan-2-ol]
fewer cardiomyocytes undergoing cytokinesis failure than PBS-treated pups ([1]; at P8): 13.6%
additional cardiomyocytes predicted to be generated by enabling completion of cytokinesis ([1]; at P8, back-of-the-envelope calculation from endowment of PBS-treated pups at P4): 0.22×10^6 cardiomyocytes
propranolol-induced increase of endowment between P4 and P8 (treated minus PBS) ([1]; calculated from the counts): 0.18×10^6 cardiomyocytes
heart weight ([1]; newborn mice, 2 i.p. injections per day, FIG. 16A, 16B): not changed
increase of cardiomyocyte endowment ([1]; newborn mice, at P4, 10 μg/g, 2 i.p. injections per day): 22%
increase of cardiomyocyte endowment ([1]; newborn mice, at P8, 2 i.p. injections per day, 12H): 30%
cardiomyocyte cell cycle entry (quantified by BrdU uptake) ([1]; newborn mice, at P8, FIG. 12E): without a change
progression to M-phase (quantified by H3P-staining) ([1]; newborn mice, at P8, FIG. 12F): without a change
decrease of the proportion of binucleated cardiomyocytes ([1]; newborn mice, treatment from P1 to P4, 10 μg/g, 2 i.p. injections per day, FIG. 12C): 21%
decrease of the proportion/formation of binucleated cardiomyocytes ([1]; newborn mice, treatment from P1 to P8, 2 i.p. injections per day (propranolol 10 μg/g; alprenolol 10 μg/g, 40 μg/g), FIG. 12C, 12G): 17%
increase of cardiomyocyte endowment between P4 and P8 in treated pups ([1]; propranolol-treated pups, from counts): 0.35×10^6 cardiomyocytes
Ect2-positive midbodies ([2]; human fetal cardiomyocytes in cytokinesis, immunofluorescence microscopy, FIG. 14D): increased
block of the dobutamine-stimulated increase in cardiomyocyte cytokinesis failure ([2]; propranolol 10 μM + dobutamine 10 μM, human fetal cardiomyocytes, FIG. 14C): completely
inhibition of the dobutamine-stimulated increase in binucleated cardiomyocytes [3]: completely
